Measured values taken from paper PMC10873978, “Novel tetrahydroisoquinolines as DHFR and CDK2 inhibitors: synthesis, characterization, anticancer activity and antioxidant properties” (BMC Chemistry, 2024).
Entries after “also recorded” stand apart in the source; their conditions may differ.

Assays:
MCF7 cell line = experiment: In vitro cytotoxic activity, MTT method, MCF7; type: cell-based, human; details: for IC50: Homo sapiens, MCF7, MCF7 cell line, MTT
Method: (§1) Cell lines: The in vitro human breast cancerous cell line (MCF7), lung cancerous cell lines (A549) and normal cell lines were purchased from Serum and Vaccine formulation in Cairo-Egypt.
(§2) In vitro cytotoxic activity of all synthesized compounds against two human breast cell line (MCF7) and lung cell lines (A549) was evaluated according to the MTT method. Firstly, Growth the cell line medium in 96 well tissue culture plate was injected with 10^5 cells/mL (100 uL/plate well) of the cell line and incubated at 37 °C for 24 h to develop a monolayer sheet then the formed growth medium was poured from 96 well microtiter plates after the confluent sheet of cells. […] Secondly, add 0.1 mL of each concentration tetrahydroisoquinoline sample to each plate. The plates were incubated at 37 °C. Thirdly MTT solution (5 mg/mL in PBS) is prepared. Add 20 µL of MTT solution to each well plates. And shaking in 150 rpm for 5 min, to mix the MTT into the media. Then incubate at (37 °C, 5% CO2) for 1–5 h. Finally read the optical density at 560 nm and subtract background at 620 nm.
(§3) In this work, doxorubicin was used as a positive control drug for comparison with the synthesized compounds under the same experimental conditions.

[1] = DPPH scavenging antioxidant activity; details: for antioxidant activity compared with Vitamin C: DPPH
Method: The antioxidant activity of ten compounds was determined using DPPH [32–34]. A solution 1: prepared by dissolving DPPH (0.002 g) in ethanol (50 mL etnanol). Solution 2: prepared by dissolving different weights 0.05, 0.01 g of each sample in 1 mL of DMSO then take 10 µL of each sample solution with 1 mL ethanol. Then mix 1 mL of solution 1 with 1 mL of solution 2 then vortex the resulting mixture in the dark for about 30 min. The absorbance of the mixture was measured by spectrophotometer at λmax = 517 nm against blank 1 mL absolute ethanol and compared to the ascorbic acid (Vitamin C).
Ten newly synthesized compounds were studied as in vitro antioxidants by measuring of their DPPH scavenging activity which is represented as a percentage % [32]^. Results are represented by mean ± SD of three replicates. […] The higher dose concentration of 0.05 μg/mL represents higher antioxidant activity. […] The high antioxidant activity is referred to the presence of C=O, NH2, and OH groups like ascorbic acid which can be easily oxidized and reduced and can be used as antioxidant drugs. (Fig. 8 and Table 9).

A549 cell line = experiment: In vitro cytotoxic activity, MTT method, A549; details: for IC50: Homo sapiens, read-out: IC50 ± SD
Method: as §1, §2, §3

With `CC(=O)C1C(c2ccc(N(C)C)cc2)c2c(C)[nH]c(=S)c(C#N)c2CC1(C)O` (centres unmarked) [Compound 1, 7-Acetyl-4-cyano-1,6-dimethyl-6-hydroxy-8-(4-N,N-dimethylaminophenyl)-5,6,7,8-tetrahydroisoquinoline-3(2H)-thione] the IC50 (MCF7 cell line) was 1857 ± 8 nM, the Toxicity % (MCF7 cell line; MCF7, 0.0487 µMol) was 0.2745% and the Viability % (MCF7 cell line; MCF7, 0.0487 µMol) was 99.73%. For the same compound, the Toxicity % (MCF7 cell line; MCF7, 0.0975 µMol) was 0.3246%, the Viability % (MCF7 cell line; MCF7, 0.0975 µMol) was 99.68% and the Toxicity % (MCF7 cell line; MCF7, 0.195 µMol) was 0.4493%. It also gave a Viability % (MCF7 cell line; MCF7, 0.195 µMol) of 99.55%, a Viability % (MCF7 cell line; MCF7, 0.391 µMol) of 91.95% and a Toxicity % (MCF7 cell line; MCF7, 0.781 µMol) of 23.53%. For the same compound, the Viability % (MCF7 cell line; MCF7, 0.781 µMol) was 76.47%, the Toxicity % (MCF7 cell line; MCF7, 1.562 µMol) was 46.08% and the Viability % (MCF7 cell line; MCF7, 1.562 µMol) was 53.92%. The Toxicity % (MCF7 cell line; MCF7, 3.125 µMol) was 76.35%, the Viability % (MCF7 cell line; MCF7, 3.125 µMol) was 23.65% and the Toxicity % (MCF7 cell line; MCF7, 6.25 µMol) was 86.93%. It also gave a Viability % (MCF7 cell line; MCF7, 6.25 µMol) of 13.07%, a Toxicity % (MCF7 cell line; MCF7, 12.5 µMol) of 93.63% and a Viability % (MCF7 cell line; MCF7, 12.5 µMol) of 6.373%. The Toxicity % (MCF7 cell line; MCF7, 25 µMol) was 97.3%, the Viability % (MCF7 cell line; MCF7, 25 µMol) was 2.696% and the “DPPH scavenging, inhibition (%)” value ([1]; 0.01 µg/mL) was 61.01 ± 0.58%. For the same compound, the “DPPH scavenging, inhibition (%)” value ([1]; 0.05 µg/mL) was 92.3 ± 0.44%, the “antioxidant activity compared with Vitamin C” value [1] was “higher result than Vitamin C; also recorded: higher antioxidant activity than Vitamin C” and the Toxicity % (A549 cell line; A549, Conc. 0.0487 µMol) was 1%. It also gave a Viability % (A549 cell line; A549, Conc. 0.0487 µMol) of 99%, a Viability % (A549 cell line; A549, Conc. 0.0975 µMol) of 98.2% and a Toxicity % (A549 cell line; A549, Conc. 0.195 µMol) of 3%. For the same compound, the Viability % (A549 cell line; A549, Conc. 0.195 µMol) was 97%, the Toxicity % (A549 cell line; A549, Conc. 0.391 µMol) was 7.89% and the Viability % (A549 cell line; A549, Conc. 0.391 µMol) was 92.11%. It also gave a Toxicity % (A549 cell line; A549, Conc. 0.781 µMol) of 21.85%, a Viability % (A549 cell line; A549, Conc. 0.781 µMol) of 78.15% and a Toxicity % (A549 cell line; A549, Conc. 1.562 µMol) of 34.99%. The Viability % (A549 cell line; A549, Conc. 1.562 µMol) was 65.01%, the Toxicity % (A549 cell line; A549, Conc. 3.125 µMol) was 59.76% and the Viability % (A549 cell line; A549, Conc. 3.125 µMol) was 40.24%. For the same compound, the Toxicity % (A549 cell line; A549, Conc. 6.25 µMol) was 76.21%, the Viability % (A549 cell line; A549, Conc. 6.25 µMol) was 23.79% and the Toxicity % (A549 cell line; A549, Conc. 12.5 µMol) was 90.77%. It also gave a Viability % (A549 cell line; A549, Conc. 12.5 µMol) of 9.231%, a Toxicity % (A549 cell line; A549, Conc. 25 µMol) of 96.84% and a Viability % (A549 cell line; A549, Conc. 25 µMol) of 3.156%. For the same compound, the IC50 (A549 cell line) was 2219 ± 2 nM.

With `CC(=O)C1C(c2ccc(N(C)C)cc2)c2c(C)nc(SCC#N)c(C#N)c2CC1(C)O` (centres unmarked) [Compound 6, 2-[(7-Acetyl-4-cyano-1,6-dimethyl-6-hydroxy-8-(4-N,N-dimethylamino-phenyl)-5,6,7,8-tetrahydroisoquinolin-3-yl)thio]acetonitrile] the IC50 (MCF7 cell line) was 329 ± 5 nM, the Viability % (MCF7 cell line; MCF7, 0.0487 µMol) was 80.118% and the Toxicity % (MCF7 cell line; MCF7, 0.0975 µMol) was 25.5567%. For the same compound, the Viability % (MCF7 cell line; MCF7, 0.0975 µMol) was 74.5543%, the Toxicity % (MCF7 cell line; MCF7, 0.195 µMol) was 38.24% and the Viability % (MCF7 cell line; MCF7, 0.195 µMol) was 61.76%. It also gave a Toxicity % (MCF7 cell line; MCF7, 0.391 µMol) of 59.68%, a Viability % (MCF7 cell line; MCF7, 0.391 µMol) of 40.32% and a Toxicity % (MCF7 cell line; MCF7, 0.781 µMol) of 70.71%. It also gave a Viability % (MCF7 cell line; MCF7, 0.781 µMol) of 29.29%, a Toxicity % (MCF7 cell line; MCF7, 1.562 µMol) of 76.35% and a Viability % (MCF7 cell line; MCF7, 1.562 µMol) of 23.65%. It also gave a Toxicity % (MCF7 cell line; MCF7, 3.125 µMol) of 85.7%, a Viability % (MCF7 cell line; MCF7, 3.125 µMol) of 14.3% and a Toxicity % (MCF7 cell line; MCF7, 6.25 µMol) of 93.38%. It also gave a Viability % (MCF7 cell line; MCF7, 6.25 µMol) of 6.618%, a Toxicity % (MCF7 cell line; MCF7, 12.5 µMol) of 97.14% and a Viability % (MCF7 cell line; MCF7, 12.5 µMol) of 2.859%. The Toxicity % (MCF7 cell line; MCF7, 25 µMol) was 97.34%, the Viability % (MCF7 cell line; MCF7, 25 µMol) was 2.655% and the “DPPH scavenging, inhibition (%)” value ([1]; 0.01 µg/mL) was 69.67 ± 5.65%. The “DPPH scavenging, inhibition (%)” value ([1]; 0.05 µg/mL) was 83.72 ± 4.08%, the “antioxidant activity compared with Vitamin C” value [1] was “higher result than Vitamin C; also recorded: higher antioxidant activity than Vitamin C” and the Viability % (A549 cell line; A549, Conc. 0.0487 µMol) was 99.7%. The Toxicity % (A549 cell line; A549, Conc. 0.0975 µMol) was 0.50%, the Viability % (A549 cell line; A549, Conc. 0.0975 µMol) was 99.5% and the Toxicity % (A549 cell line; A549, Conc. 0.195 µMol) was 0.6312%. It also gave a Viability % (A549 cell line; A549, Conc. 0.195 µMol) of 99.37%, a Toxicity % (A549 cell line; A549, Conc. 0.391 µMol) of 1.46% and a Viability % (A549 cell line; A549, Conc. 0.391 µMol) of 98.54%. It also gave a Toxicity % (A549 cell line; A549, Conc. 0.781 µMol) of 15.46%, a Viability % (A549 cell line; A549, Conc. 0.781 µMol) of 84.54% and a Toxicity % (A549 cell line; A549, Conc. 1.562 µMol) of 29.7%. For the same compound, the Viability % (A549 cell line; A549, Conc. 1.562 µMol) was 70.3%, the Toxicity % (A549 cell line; A549, Conc. 3.125 µMol) was 43.83% and the Viability % (A549 cell line; A549, Conc. 3.125 µMol) was 56.17%. The Toxicity % (A549 cell line; A549, Conc. 6.25 µMol) was 74.71%, the Viability % (A549 cell line; A549, Conc. 6.25 µMol) was 25.29% and the Toxicity % (A549 cell line; A549, Conc. 12.5 µMol) was 88.52%. The Viability % (A549 cell line; A549, Conc. 12.5 µMol) was 11.48%, the Toxicity % (A549 cell line; A549, Conc. 25 µMol) was 96.29% and the Viability % (A549 cell line; A549, Conc. 25 µMol) was 3.708%. It also gave an IC50 (A549 cell line) of 3736 ± 2 nM.
